Source: publication PMC6407917, “Identification of GSK3186899/DDD853651 as a Preclinical Development Candidate for the Treatment of Visceral Leishmaniasis” (Journal of Medicinal Chemistry, 2018)

Assays:
Experiment in all cases: biochemical
Set-up in all cases: species or system HEK293/K-562/placenta mixed human extract; Kinobeads chemoproteomic competition binding, quantified by TMT LC-MS/MS, dose response up to 20 uM
LYN = LYN (Homo sapiens, UniProt P07948)
RPS6KA1 = RPS6KA1 (Homo sapiens, UniProt Q15418)
PIP4K2B = PIP4K2B (Homo sapiens, UniProt P78356)
MAPK11 = MAPK11 (Homo sapiens, UniProt Q15759)
Chain of MAPK11 (Q15759 whole entry): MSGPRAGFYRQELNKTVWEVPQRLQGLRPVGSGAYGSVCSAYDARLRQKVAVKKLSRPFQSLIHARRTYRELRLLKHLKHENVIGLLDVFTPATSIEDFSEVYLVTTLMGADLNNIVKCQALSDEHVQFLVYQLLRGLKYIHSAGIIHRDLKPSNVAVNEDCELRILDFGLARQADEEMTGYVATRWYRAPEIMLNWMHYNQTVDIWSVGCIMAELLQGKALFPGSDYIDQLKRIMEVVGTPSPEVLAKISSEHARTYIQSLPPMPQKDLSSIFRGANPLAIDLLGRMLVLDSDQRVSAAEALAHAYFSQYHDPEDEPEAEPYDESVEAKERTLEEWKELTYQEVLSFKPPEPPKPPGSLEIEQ

FYN = FYN (Homo sapiens, UniProt P06241)
WNK4 = WNK4 (Homo sapiens, UniProt Q96J92)
Chain of WNK4 (Q96J92 whole entry): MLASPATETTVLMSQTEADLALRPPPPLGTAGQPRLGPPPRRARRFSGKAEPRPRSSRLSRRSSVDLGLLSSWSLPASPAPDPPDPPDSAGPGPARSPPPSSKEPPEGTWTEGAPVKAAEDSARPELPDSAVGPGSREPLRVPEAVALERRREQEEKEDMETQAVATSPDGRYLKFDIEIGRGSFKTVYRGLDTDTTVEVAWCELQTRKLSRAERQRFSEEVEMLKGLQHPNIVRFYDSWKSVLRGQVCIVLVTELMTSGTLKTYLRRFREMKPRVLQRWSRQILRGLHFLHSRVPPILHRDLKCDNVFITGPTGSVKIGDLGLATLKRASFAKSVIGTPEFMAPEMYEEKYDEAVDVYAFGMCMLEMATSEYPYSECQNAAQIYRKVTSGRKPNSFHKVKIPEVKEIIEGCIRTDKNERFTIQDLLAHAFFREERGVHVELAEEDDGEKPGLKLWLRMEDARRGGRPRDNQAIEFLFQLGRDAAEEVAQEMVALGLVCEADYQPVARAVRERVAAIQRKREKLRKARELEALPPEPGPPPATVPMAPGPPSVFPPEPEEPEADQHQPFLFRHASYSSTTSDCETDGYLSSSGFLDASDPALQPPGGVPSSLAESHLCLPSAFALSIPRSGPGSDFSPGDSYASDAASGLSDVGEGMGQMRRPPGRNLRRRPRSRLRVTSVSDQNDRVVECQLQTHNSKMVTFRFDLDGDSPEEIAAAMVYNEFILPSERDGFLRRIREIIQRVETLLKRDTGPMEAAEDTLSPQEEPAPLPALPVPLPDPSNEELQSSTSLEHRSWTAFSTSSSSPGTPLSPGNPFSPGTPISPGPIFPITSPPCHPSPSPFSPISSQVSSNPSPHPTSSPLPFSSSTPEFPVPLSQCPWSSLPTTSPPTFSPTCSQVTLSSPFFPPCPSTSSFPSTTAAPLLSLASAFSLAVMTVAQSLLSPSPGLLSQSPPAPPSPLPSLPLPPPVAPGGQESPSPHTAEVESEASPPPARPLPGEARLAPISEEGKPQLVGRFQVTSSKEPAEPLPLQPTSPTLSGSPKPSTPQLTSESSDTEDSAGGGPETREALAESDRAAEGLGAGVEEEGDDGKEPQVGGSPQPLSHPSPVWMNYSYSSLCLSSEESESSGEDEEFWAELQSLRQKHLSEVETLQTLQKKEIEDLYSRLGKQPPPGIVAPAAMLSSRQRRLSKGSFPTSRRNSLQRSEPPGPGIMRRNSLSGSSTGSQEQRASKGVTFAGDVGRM

SLK = SLK (Homo sapiens, UniProt Q9H2G2)
CDK5 = CDK5 (Homo sapiens, UniProt Q00535)
Chain of CDK5 (Q00535 whole entry): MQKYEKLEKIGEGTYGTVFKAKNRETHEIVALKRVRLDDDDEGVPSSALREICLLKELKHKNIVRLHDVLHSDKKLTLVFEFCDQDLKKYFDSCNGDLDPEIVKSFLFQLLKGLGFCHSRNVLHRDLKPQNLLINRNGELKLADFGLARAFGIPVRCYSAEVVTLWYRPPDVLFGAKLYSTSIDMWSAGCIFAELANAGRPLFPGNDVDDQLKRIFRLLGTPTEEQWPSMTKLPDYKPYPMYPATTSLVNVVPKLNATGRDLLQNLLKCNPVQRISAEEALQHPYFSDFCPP

RPS6KA3 = RPS6KA3 (Homo sapiens, UniProt P51812)
PIK3C2B = PIK3C2B (Homo sapiens, UniProt O00750)
PRKDC = PRKDC (Homo sapiens, UniProt P78527)
RPS6KA6 = RPS6KA6 (Homo sapiens, UniProt Q9UK32)
MAP4K3 = MAP4K3 (Homo sapiens, UniProt Q8IVH8)
MAPK8 = MAPK8 (Homo sapiens, UniProt P45983)
FER = FER (Homo sapiens, UniProt P16591)
Chain of FER (P16591 whole entry): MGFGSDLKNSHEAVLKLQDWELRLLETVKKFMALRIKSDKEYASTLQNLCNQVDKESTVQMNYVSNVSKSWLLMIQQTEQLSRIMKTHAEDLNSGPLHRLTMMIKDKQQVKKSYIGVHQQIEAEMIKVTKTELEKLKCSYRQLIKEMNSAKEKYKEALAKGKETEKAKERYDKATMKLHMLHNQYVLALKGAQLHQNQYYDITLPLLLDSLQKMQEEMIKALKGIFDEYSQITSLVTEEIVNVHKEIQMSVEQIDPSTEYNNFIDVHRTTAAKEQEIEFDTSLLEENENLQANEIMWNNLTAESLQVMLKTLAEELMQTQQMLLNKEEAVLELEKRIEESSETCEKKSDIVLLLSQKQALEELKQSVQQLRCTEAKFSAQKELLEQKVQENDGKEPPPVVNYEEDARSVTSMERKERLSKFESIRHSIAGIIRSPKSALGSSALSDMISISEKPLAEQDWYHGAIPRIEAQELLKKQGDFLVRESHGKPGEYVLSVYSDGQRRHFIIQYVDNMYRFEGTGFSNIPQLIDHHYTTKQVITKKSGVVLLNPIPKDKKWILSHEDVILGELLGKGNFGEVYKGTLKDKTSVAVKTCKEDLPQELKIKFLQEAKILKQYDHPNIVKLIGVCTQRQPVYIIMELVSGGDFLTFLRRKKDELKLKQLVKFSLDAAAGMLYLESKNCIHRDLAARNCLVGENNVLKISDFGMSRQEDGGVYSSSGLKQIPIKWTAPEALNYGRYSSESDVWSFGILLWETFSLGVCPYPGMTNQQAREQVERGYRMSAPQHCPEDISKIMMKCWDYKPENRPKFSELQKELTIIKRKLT

CSNK2A1 = CSNK2A1 (Homo sapiens, UniProt P68400)
Chain of CSNK2A1 (P68400 whole entry): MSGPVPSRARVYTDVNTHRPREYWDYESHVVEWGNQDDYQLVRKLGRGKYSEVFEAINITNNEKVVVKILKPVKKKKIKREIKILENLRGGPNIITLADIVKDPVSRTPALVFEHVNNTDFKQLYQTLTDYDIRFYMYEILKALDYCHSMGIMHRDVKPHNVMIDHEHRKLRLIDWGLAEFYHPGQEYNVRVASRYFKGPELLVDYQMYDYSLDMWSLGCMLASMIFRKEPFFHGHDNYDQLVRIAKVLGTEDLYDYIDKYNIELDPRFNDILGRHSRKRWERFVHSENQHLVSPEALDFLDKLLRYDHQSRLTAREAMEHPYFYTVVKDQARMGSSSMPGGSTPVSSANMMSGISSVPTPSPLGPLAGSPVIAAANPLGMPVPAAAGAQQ

EPHA4 = EPHA4 (Homo sapiens, UniProt P54764)
MARK3 = MARK3 (Homo sapiens, UniProt P27448)
ACVR1 = ACVR1 (Homo sapiens, UniProt Q04771)
Chain of ACVR1 (Q04771 whole entry): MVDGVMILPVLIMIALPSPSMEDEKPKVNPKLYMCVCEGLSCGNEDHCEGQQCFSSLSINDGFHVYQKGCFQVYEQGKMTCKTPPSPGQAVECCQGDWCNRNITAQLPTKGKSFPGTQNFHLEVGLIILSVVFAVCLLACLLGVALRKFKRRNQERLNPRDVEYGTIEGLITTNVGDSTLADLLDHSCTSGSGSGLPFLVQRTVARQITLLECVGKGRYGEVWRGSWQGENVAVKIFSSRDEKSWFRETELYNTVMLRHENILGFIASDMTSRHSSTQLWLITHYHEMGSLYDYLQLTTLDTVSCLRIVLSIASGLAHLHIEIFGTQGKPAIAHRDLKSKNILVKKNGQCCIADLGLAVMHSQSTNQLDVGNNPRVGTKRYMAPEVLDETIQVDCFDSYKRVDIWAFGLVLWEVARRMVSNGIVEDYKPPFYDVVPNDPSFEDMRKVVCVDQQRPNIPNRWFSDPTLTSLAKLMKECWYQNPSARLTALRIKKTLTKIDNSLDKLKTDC

TLK2 = TLK2 (Homo sapiens, UniProt Q86UE8)
Chain of TLK2 (Q86UE8 whole entry): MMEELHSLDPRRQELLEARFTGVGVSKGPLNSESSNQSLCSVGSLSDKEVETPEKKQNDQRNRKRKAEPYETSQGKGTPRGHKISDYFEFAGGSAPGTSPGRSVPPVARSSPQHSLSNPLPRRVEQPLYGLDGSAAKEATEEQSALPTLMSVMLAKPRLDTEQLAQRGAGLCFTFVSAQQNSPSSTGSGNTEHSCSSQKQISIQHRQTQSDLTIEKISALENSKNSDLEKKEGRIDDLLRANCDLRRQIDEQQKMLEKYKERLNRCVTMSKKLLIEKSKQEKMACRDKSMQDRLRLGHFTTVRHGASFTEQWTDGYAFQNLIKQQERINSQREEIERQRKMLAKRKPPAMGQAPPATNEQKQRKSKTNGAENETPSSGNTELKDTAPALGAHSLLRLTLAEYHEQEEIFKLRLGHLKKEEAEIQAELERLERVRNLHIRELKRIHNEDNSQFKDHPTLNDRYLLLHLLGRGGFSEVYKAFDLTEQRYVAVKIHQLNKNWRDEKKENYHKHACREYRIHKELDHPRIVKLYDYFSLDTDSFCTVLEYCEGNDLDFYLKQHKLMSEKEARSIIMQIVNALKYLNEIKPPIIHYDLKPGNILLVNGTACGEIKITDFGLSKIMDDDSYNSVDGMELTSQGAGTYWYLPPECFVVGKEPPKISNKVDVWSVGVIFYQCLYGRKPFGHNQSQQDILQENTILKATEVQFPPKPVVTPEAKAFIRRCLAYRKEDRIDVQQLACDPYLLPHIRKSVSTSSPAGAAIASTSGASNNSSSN

PIK3R4 = PIK3R4 (Homo sapiens, UniProt Q99570)

Measured: IC50

Chain of LYN (P07948 whole entry): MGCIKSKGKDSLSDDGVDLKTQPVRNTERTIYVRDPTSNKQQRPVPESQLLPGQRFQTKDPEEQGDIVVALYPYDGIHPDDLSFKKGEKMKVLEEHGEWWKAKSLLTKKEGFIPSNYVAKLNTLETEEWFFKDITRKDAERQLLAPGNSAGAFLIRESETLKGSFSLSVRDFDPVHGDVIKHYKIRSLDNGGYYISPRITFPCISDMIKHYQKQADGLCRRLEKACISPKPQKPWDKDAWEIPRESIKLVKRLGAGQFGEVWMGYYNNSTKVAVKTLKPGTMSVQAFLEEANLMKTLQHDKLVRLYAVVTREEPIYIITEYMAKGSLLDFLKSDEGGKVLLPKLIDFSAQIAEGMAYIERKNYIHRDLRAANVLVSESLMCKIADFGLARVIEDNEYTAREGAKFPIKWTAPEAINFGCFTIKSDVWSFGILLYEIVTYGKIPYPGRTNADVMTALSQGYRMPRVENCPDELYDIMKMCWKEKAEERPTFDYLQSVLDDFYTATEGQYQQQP

COc1ccccc1-c1n[nH]c2nc(N[C@H]3CC[C@H](NS(=O)(=O)CCC(F)(F)F)CC3)nc(OC)c12 [compound 31, 3,3,3-Trifluoro-N-(trans-4-((4-methoxy-3-(2-methoxyphenyl)-1H-pyrazolo[3,4-d]pyrimidin-6-yl)amino)cyclohexyl)propane-1-sulfonamide]
9.4 µM: PIP4K2B
1.2 µM: CDK5
≥ 20 µM: all other assays above
